Experimental data from patent publication US20150250864A1, “ANTI-CANCER VACCINES” (Board of Regents, The University of Texas System, priority 2012, published 2015).

Test system: T cells in PBMCs
Experiment: IFN-γ release by ELISA from PBMC stimulated with peptides or protein
Format: cell-based, human
Settings: stimulated PBMC, FIG. 21A
From the text: FIG. 17. T cell stimulation by HERV-K peptides. Peptides (p73-76 and p18-135) or HERV-K SU fusion proteins were used to stimulate PBMC and evaluated in vitro for their ability to stimulate T cells in PBMCs from healthy subjects (ND1007083; left) and/or cancer patients (BC 243; right), based on interferon-γ(IFN-γ) release by ELISA. KLH peptide and GST protein were used as controls. Other negative controls included media only, DMSO, and PBS.
FIG. 18. T cell stimulation by HERV-K peptides. Peptides (p73-76: left; and p18-135: middle) or HERV-K SU fusion proteins (right) were used to stimulate PBMC and evaluated in vitro for their ability to stimulate T cells in PBMCs from healthy subjects and/or cancer patients (BC 243; middle), based on interferon-γ (IFN-γ) release by ELISA. OD values of interferon-γ (IFN-γ) release were compared between normal donors (ND447549, ND1001366, and ND1007083) and cancer patients (OC222, OC 210, OC212, and BC243). OC is ovarian cancer and BC is breast cancer
FIGS. 21A-C. T Cell Stimulation. 9 mer Peptides (HERVK-3, HERVK-4, HERVK-11, and HERVK-18; see Table 1), p73-76 and p18-135 (Table 1 178 and 179), or HERV-K SU fusion proteins were used to stimulate PBMC and evaluated in vitro for their ability to stimulate T cells in PBMCs from healthy subjects and/or cancer patients, based on IFN-γ and Granzyme B release by ELISA. (FIG. 21A) OD values of IFN-γ release were compared in a normal donor (ND291812). (FIG. 21B) OD values of IFN-γ release were compared between a normal donor (ND291817) and an ovarian cancer patient (OC153). (FIG. 21C) OD values of Granzyme B release were compared between a normal donor (ND291817) and an ovarian cancer patient (OC153). Each dot represents an individual clone. Negative controls measured release of effector molecules from cancer cells after treatment with supernatants obtained from PBMCs without stimulation with HERV-K peptides or protein; positive controls were stimulated with PMA/ONO.
Cancer patients were enrolled to evaluate HERV-K as a tumor associated antigen target. Patients provided written informed consent as part of an approved protocol (LAB04-0083) at MD Anderson Cancer Center prior to commencing the studies. Normal healthy donor control blood samples were obtained from Gulf Coast Regional Blood Center, Houston Tex. 40 mL of peripheral blood was obtained from each patient, and peripheral blood mononuclear cells (PBMCs) were isolated by density gradient centrifugation using Histopaque-1077 (Sigma-Aldrich; USA). HLA-A*02 expression in PBMCs obtained from cancer patients and healthy subjects was determined by flow cytometry with PE Mouse anti-human HLA-A2 mAb BB7.2 (BD Pharmingen; San Diego, Calif., USA). Mouse IgG2b was used as an isotype control. PBMCs (5×10^5 cells/well) from either healthy subjects or cancer patients were incubated with Peptide #18-135 ([…]; SEQ ID NO: 178), Peptide #73-76 ([…]; SEQ ID NO: 179) or KLH as control peptide) or proteins (HERV-K env SU protein or GST protein as control) at concentrations of 40 μg/mL in 96-well U-bottom microplates (BD; Franklin Lakes, N.J., USA) in 100 μL of T-cell medium (TCM), consisting of RPMI 1640 (Mediatech; Manassas, Va., USA), 10% human AB serum (Valley Biomedical, Winchester, USA), […] 2-mercaptoethanol, 100 IU/mL interleukin-2 (IL-2), and 0.1 mM MEM nonessential amino acid solution (Invitrogen; Grand Island, N.Y., USA). Half of the TCM was removed and replaced with fresh TCM containing peptides (20 μg/mL) on day 7. After 14 days of culture, the supernatants from cell culture media (PBMC pulsed with peptides or proteins) were harvested and tested for their ability to produce IFN-gamma or IL-2, and granzyme B release was also determined by enzyme-linked immunosorbent assay (ELISA) assay. In order to detect the secreted cytokine in this assay, high-binding plates were coated with 5 μg/ml anti-IFN-γ (Mabtech, Stockholm, Sweden) diluted in PBS buffer at 4° C. overnight. […]

## IINLILILV [HERVK-18]
  IFN-γ release (OD values): Higher IFN-γ release

## YMLVVGNIV [HERVK-3]
  IFN-γ release (OD values): Higher IFN-γ release
